Measured values from patent US20250250265A1, “BENZOTHIAZOLE-PHENYLSULFONYL-PIPERIDINE ANALOGS AS ACTIVATORS OF NACYLPHOSPHATIDYLETHANOLAMINE HYDROLYZING PHOSPHOLIPASE D” (priority 2022, published 2025).
Entries after “also recorded” stand apart in the source; their conditions may differ. Where two headings read alike, the source gives them in different places.

What was measured:
[1] = test system: RAW264.7 mouse macrophages; assay: Cytotoxicity (MTT) in RAW264.7 macrophages; type: cell-based; conditions: for cytotoxicity in RAW264.7 cells: up to / at 30 μM; for 33 μM Mϕ % Viability: Table 2, 33 μM compound; for % viability RAW 264.7 (33 μM): Table 3
Procedure: Cytotoxicity was measured using MTT as previously described except that the studies used 96-well plates with 100 μL of 0.3 mg/mL MTT solution was added after 24 h of treatment and then replaced after 3 h with 0.1 M HCl in isopropanol. See Aggarwal et al., J. Biol. Chem. 295(21): 7289-7300 (2020). Viability was expressed as percent absorbance at 560 nm relative to vehicle controls.

[2] = biological target: T1, recombinant mouse NAPE-PLD (Mus musculus, UniProt Q8BH82); assay: In vitro fluorescence NAPE-PLD activity assay (HTS/CRC) with recombinant mouse NAPE-PLD and PED-A1; type: biochemical; conditions: for Max % bA (%): maximum induced activity compared to basal (100%) activity; for Emax (95% Cl): Table 4, maximal efficacy as fold increase in NAPE-PLD activity versus vehicle only; for bAC175: compound concentration to induce 175% basal activity
T1 construct: hexahistidine (His6) (C); made in house; host or cells: E. coli
T1 sequence (Q8BH82 1-396): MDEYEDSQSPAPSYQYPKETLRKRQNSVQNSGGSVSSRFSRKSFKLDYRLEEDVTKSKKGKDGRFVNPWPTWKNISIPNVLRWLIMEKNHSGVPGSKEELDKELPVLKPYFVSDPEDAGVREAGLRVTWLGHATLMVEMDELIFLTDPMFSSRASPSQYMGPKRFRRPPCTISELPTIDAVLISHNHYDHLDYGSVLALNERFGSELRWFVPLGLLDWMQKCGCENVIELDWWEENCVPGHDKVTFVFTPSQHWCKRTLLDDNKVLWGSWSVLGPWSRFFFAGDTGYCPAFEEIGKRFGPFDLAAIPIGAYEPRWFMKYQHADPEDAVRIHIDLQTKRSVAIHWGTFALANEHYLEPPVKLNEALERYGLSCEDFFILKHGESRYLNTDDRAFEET

[3] = biological target: T2, Fatty Acid Amide Hydrolase (FAAH) (Homo sapiens, UniProt O00519); assay: FAAH activity assay (Cayman Chemicals); type: biochemical; conditions: for inhibition of FAAH activity: graded concentrations up to 33 μM; for inhibition at 33 µM: 33 μM compound, compared to vehicle (0%); for Remaining FAAH Activity (33 μM): Table 3
T2 construct: purchased Cayman Chemicals
T2 sequence (O00519 1-579): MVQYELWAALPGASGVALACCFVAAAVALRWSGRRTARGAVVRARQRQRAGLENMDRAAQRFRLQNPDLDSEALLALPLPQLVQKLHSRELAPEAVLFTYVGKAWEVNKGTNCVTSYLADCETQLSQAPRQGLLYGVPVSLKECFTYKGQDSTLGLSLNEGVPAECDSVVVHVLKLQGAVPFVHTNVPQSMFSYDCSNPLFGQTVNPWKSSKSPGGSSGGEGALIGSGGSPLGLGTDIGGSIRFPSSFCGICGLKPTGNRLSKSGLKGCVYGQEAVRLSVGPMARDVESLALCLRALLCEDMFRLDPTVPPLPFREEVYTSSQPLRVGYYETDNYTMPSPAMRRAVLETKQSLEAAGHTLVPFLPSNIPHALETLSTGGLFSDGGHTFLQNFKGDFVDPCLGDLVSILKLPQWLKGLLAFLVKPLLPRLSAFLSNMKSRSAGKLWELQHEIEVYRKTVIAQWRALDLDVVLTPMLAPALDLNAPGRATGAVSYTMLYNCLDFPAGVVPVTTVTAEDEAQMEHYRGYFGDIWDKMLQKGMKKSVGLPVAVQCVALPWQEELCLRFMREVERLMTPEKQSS
Procedure: Concentration response curves were plotted for VU534 for the enzymes fatty acid amide hydrolase (FAAH) and soluble epoxide hydrolase (sEH).
The fluorescence interference assay was performed using the same method as the HTS assay, but with BODIPY-FL C5 (Thermo Fisher Scientific) used in place of PED-A1. sEH and FAAH activity assays were performed according to the manufacturer's specifications (Cayman Chemicals).

[4] = Table 1, concentration for 50% maximum activation from basal activity (no activator)
[5] = Table 2, maximal induced activity for recombinant NAPE-PLD compared to basal (100%), read-out: Emax (%)
[6] = Table 2, rNAPE-PLD activity assay, read-out: EC50
[7] = Table 3, read-out: In vitro EC50
[8] = Table 3, read-out: In vitro Emax (100% activity is baseline activity of vehicle only)

With `Cc1ccc(C)c2sc(NC(=O)C3CCN(S(=O)(=O)c4ccc(F)cc4)CC3)nc12` [VU533] the “cytotoxicity in RAW264.7 cells” value [1] was “no cytotoxicity”, the “AC50 (nM)” value [2, 4] was “Not active” and the “Max % bA (%)” value ([2]; Table 1) was less than 120%. The Emax [2, 5] was less than 120%, the “EC50 (μM)” value ([2]; Table 2, rNAPE-PLD activity assay) was “Inactive” and the “Emax (95% Cl)” value [2] was 2.6 (2.6-2.8) fold. For the same molecule, the “inhibition of FAAH activity” value [3] was “only weak inhibition”.

With `Cc1cc(C)c2sc(NC(=O)C3CCN(S(=O)(=O)c4ccc(F)cc4)CC3)nc2c1` [VU534, N-(5,7-Dimethylbenzo[d]thiazol-2-yl)-1-((4-fluorophenyl)sulfonyl)piperidine-4-carboxamide] the “33 μM Mϕ % Viability” value [1] was greater than 85%, the “% viability RAW 264.7 (33 μM)” value [1] was 89% and the “cytotoxicity in RAW264.7 cells” value [1] was “minimal cytotoxicity”. For the same molecule, the “bAC175” value ([2]; Table 1) was 750 nM, the AC50 [2, 4] was 0.27 µM and the “Max % bA (%)” value ([2]; Table 1) was 195%. It also gave an Emax [2, 5] of 205%, an EC50 [2, 6] of 0.28 µM and an EC50 [2, 7] of 0.29 µM. The Emax [2, 8] was 209%, the “Emax (95% Cl)” value [2] was 2.1 (2.0-2.2) fold and the inhibition at 33 µM [3] was less than 15%. For the same molecule, the “Remaining FAAH Activity (33 μM)” value [3] was 86% and the “inhibition of FAAH activity” value [3] was “no inhibition of FAAH; also recorded: only weak inhibition; also recorded: does not inhibit”.

For `Cc1cc2nc(NC(=O)C3CCN(S(=O)(=O)c4ccc(F)cc4)CC3)sc2cc1C` [VU536], the “33 μM Mϕ % Viability” value [1] was greater than 85%, the “% viability RAW 264.7 (33 μM)” value [1] was 114% and the “bAC175” value ([2]; Table 1) was 2400 nM. The AC50 [2, 4] was 1.54 µM, the “Max % bA (%)” value ([2]; Table 1) was 215% and the Emax [2, 5] was 225%. It also gave an EC50 [2, 6] of 0.89 µM, an EC50 [2, 7] of 0.89 µM and an Emax [2, 8] of 227%. For the same molecule, the “Emax (95% Cl)” value [2] was 2.3 (2.2-2.4) fold, the inhibition at 33 µM [3] was 25% and the “Remaining FAAH Activity (33 μM)” value [3] was 75%.

`Cc1ccc(S(=O)(=O)N2CCC(C(=O)Nc3nc4c(C)cc(C)cc4s3)CC2)cc1` [VU575] was tested, and the “33 μM Mϕ % Viability” value [1] was greater than 85%, the “% viability RAW 264.7 (33 μM)” value [1] was 85% and the “bAC175” value ([2]; Table 1) was 1690 nM. For the same molecule, the AC50 [2, 4] was 0.95 µM, the “Max % bA (%)” value ([2]; Table 1) was 210% and the Emax [2, 5] was 220%. It also gave an EC50 [2, 6] of 0.19 µM, an EC50 [2, 7] of 0.19 µM and an Emax [2, 8] of 215%. For the same molecule, the “Emax (95% Cl)” value [2] was 2.4 (2.3-2.5) fold, the inhibition at 33 µM [3] was less than 15% and the “Remaining FAAH Activity (33 μM)” value [3] was 90%.
